Each block holds one molecule with its values, some of them ahead of it.
Tests used:
[1] = tested on: imiquimod-induced mouse model of psoriasis; assay: Imiquimod-induced psoriasis suppression assay; assay type: in vivo, Balb/c female mice; design: key to Erythema score, Mean / Psoriasis score, Mean / Thickness score, Mean: 0-5 scale, higher = more severe; key to Total clinical score, Mean: sum of 0-5 component scores; higher = more serious disease; details: for Ratio of spleen to body weight, Mean: Day 7, percentage of spleen to body weight; for Erythema score, Mean / Psoriasis score, Mean / Thickness score, Mean: Days 1-7; for Total clinical score, Mean: Days 1-7, endpoint of the experiment; for Effect on clinical score at the endpoint of the experiment / Effect on the ratio of spleen to body weight / Effect on the increase in skin thickness: Compound A 0.03%, versus model group; for Effect on clinical score at the endpoint of the experiment: each dose of Compound I (0.01%, 0.03%, 0.1%); for Effect on the ratio of spleen to body weight: three dose groups of Compound I; for Effect on the increase in skin thickness: Compound I low and high dose groups
Excerpt: An appropriate amount of Compound I was formulated into an ointment with the following components: 0.1% of Compound I, 9% of hexanediol, 78.8% of white petrolatum, 5% of paraffin, 7% of glyceryl mono- and di-stearate, and 0.1% of dihydroxybutyl toluene, which were mechanically stirred until an ointment was formed.
7-Week-old Balb/c female mice were used and the hair on their back in an area of 2 cm×3 cm was shaved the day before the experiment. On Days 1-7 of the experiment, the test compounds were applied on the skin, and after 6 hours, imiquimod (IMQ) ointment (Aldara (5%)) was continuously applied to the back skin of mice for 7 days, so as to establish a mouse model of psoriasis, while the control group was given the same dose of petrolatum ointment. On Days 3, 5 and 7, the severity of skin inflammation was assessed, including measurement of skin thickness, crusting and erythema, scored on a 5-point scale (0-5) respectively. The total score was used to assess the severity of skin inflammation. On Day 7 of the experiment, the spleen was collected and weighed, and the percentage of spleen to body weight was calculated to assess the immunosuppressive effect of the drug.
Normal control group, model control group, low, medium and high dose groups of Compound I (0.01%, 0.03% and 0.1%), and 0.03% reference Compound A group were set up in this experiment.
The total score of the degree of skin inflammation are the clinical score, the indicators of which are relatively subjective, and higher score indicated more serious disease. The degree of increase in skin thickness was an objective assessment indicator, and more increase in thickness indicated more serious disease. The ratio of spleen to body weight was an objective assessment indicator, and smaller ratio of spleen to body weight indicated stronger immunosuppressive effect of the drug.

TNF-α release in PBMCs = assay: Inhibition of LPS-induced TNF-α release in peripheral blood mononuclear cells; assay type: cell-based; details: PBMC; LPS 0.1 ng/ml, 24 hours, ELISA
Description: Frozen PBMCs were thawed and detected by Trypan blue staining for cell viability and number. The thawed PBMCs were washed with RPMI1640 complete medium (RPMI1640+10% FBS+1% PS) and centrifuged, and the supernatant was discarded. The PBMCs were resuspended with RPMI1640 complete medium and the cell density was adjusted to 2×10^6 cells/mL. 2×10^5 PBMC cells were plated in a 96-well cell culture plate, and the compounds to be tested were added at different concentrations, in a 1:5 serial dilution of 9 concentrations starting from a maximum compound concentration of 100 μM, each in duplicate wells. LPS was added at a final concentration of 0.1 ng/ml, making a total volume of 200 μL. For the negative and positive controls, only LPS and DMSO were added to the negative control wells, while 1 μg/mL of dexamethasone as a positive control was added to the positive control wells in addition to cells and LPS. The cells were incubated for 24 hours in an incubator at 37° C. After completion of the incubation, 100 μL of cell culture supernatant was collected and detected by ELISA for the TNF-α level. 100 μL of CellTiter-Glo was added to the remaining cells in each well to detect the level of cell viability. The IC50 values of inhibition on TNF-α release by the compounds were calculated.

PDE4B1 enzyme = molecular target: T1, PDE4B1 enzyme (Homo sapiens, UniProt Q07343); assay: In vitro PDE4B enzyme activity detection assay (IMAP FP, FAM-cAMP substrate); assay type: biochemical; details: PDE4B1 0.04 nM, FAM-cAMP 0.1 μM, 25° C. 30 min
T1 construct: purchased BPS 60041
Description: A stock solution of the compound at a concentration of 10 mM was prepared in a test tube with 90% DMSO (10% water), and it was used to prepare a series of dilutions with a dilution factor of 1:5 and final concentrations starting from 100 μM and lowering to 0.05 nM.
0.2 μl of the solution of the compound was transferred into a 384-well reaction plate, and 0.2 μl of 100% DMSO was transferred into both the negative and positive controls. Then, 10 μl of 2×PDE4B1 enzyme solution (a final concentration of 0.04 nM) was added to the wells, and 10 μl of 1× reaction buffer (50 mM HEPES, pH 7.5, 0.0015% Brij-35) instead of the enzyme solution was added to the wells of the control without enzyme activity. The plate was centrifuged at 1,000 rpm for 1 min and incubated at room temperature for 15 min. Next, 10 μl of 2×FAM-CAMP substrate solution (a substrate final concentration of 0.1 μM) was added to each well of the 384-well reaction plate. The plate was centrifuged at 1,000 rpm for 1 min, and the reaction was carried out at 25° C. for 30 min. […]
After completion of the incubation, the RLU data were read and the inhibition rate was calculated. The IC50 value was calculated from the concentration-inhibition fitted curve, wherein the maximum value refers to the reading of the DMSO control and the minimum value refers to the reading of the control without enzyme activity.

[2] = tested on: IL-23 secretion in DC cells; assay: Inhibition of Zymosan-stimulated IL-23 secretion in DC cells differentiated from human mononuclear cells; assay type: cell-based; details: Zymosan 200 μg/ml, 24 hours, ELISA
Description: Day 0: Mononuclear cells were isolated from fresh human peripheral blood and purified, and then resuspended in RPMI-1640 complete medium. When differentiation into DC cells took place, IL-4 at a concentration of 50 ng/ml and GM-CSF at 100 ng/ml were added to the medium, and the cells were cultured at a density of 1×10^6 cells/mL in a culture dish with a diameter of 100 mm for differentiation in an incubator at 37° C. with a carbon dioxide concentration of 5%. Day 3: Half the volume of RPMI complete medium was replaced with fresh RPMI complete medium, and the concentrations of IL-4 and GM-CSF were maintained at 50 ng/ml and 100 ng/ml respectively. Day 6: Non-adherent cells (DC cells) in the culture dish were collected and washed with PBS. The washed DC cells were resuspended with RPMI complete medium at a density of 1×10^6 cells/mL. Then, 1×10^5 DC cells were added to each well of the 96-well cell culture plate and pre-incubated for 1 hour with different dilutions of the compounds to be tested (or DMSO blank negative control at an equivalent concentration), followed by addition of 200 μg/ml of TLR2 agonist Zymosan to stimulate the DC cells for 24 hours. Day 7: After the DC cells were stimulated by Zymosan for 24 hours, the supernatant in each well of the 96-well plate was collected and detected by ELISA for the concentration of IL-23.

[3] = Stability test I of crystal form A (temperature and humidity; HPLC and XRPD); assay type: physicochemical
Description: (§1) 5. High performance liquid chromatography (HPLC) described in the stability test of the crystal form A of the present disclosure is determined on Agilent 1260 Infinity II under the following HPLC conditions: chromatographic column of Agilen XDB C18 5 μm 4.6×250 mm; mobile phase of A—0.05% TFA (in water), and B—ACN; flow rate of 1.0 ml/min; wavelength of 220 nm.
It is determined whether temperature and humidity have an influence on the stability of crystal form A of the compound of formula I.
The crystal form A was placed in a stabilizing chamber for accelerated stability tests under a series of temperature and humidity combinations. After being placed for different days under various temperature and humidity conditions, the samples were taken out and compared with the initial crystal form A. The content of the compound of formula I was determined by high performance liquid chromatography, and XRPD detection was performed.

[4] = Dynamic vapor sorption (DVS) hygroscopicity; assay type: physicochemical
Excerpt: The ‘9103 Guidelines for Hygroscopicity of Drugs’ in Volume IV of the 2015 edition of Chinese Pharmacopoeia describes the characteristics of hygroscopicity and defines the weight gain by hygroscopicity as follows, • deliquescent: absorbing sufficient moisture to form a liquid; • extremely hygroscopic: the weight gain by hygroscopicity being no less than 15%; • hygroscopic: the weight gain by hygroscopicity being less than 15% but not less than 2%; • slightly hygroscopic: the weight gain by hygroscopicity being less than 2% but not less than 0.2%; • no or almost no hygroscopic: the weight gain by hygroscopicity being less than 0.2%.
The detection is performed using SMS Intrinsic PLUS at 25° C., with humidity change of 50%-0%-90% with a step size of 10%, in which the criteria for judging is that the mass change dM/dT for each gradient is less than 0.0002%, TMAX is 360 min, and two cycles are performed.

[5] = Stability test II of crystal form A (light; HPLC and XRPD); assay type: physicochemical
Description: as §1
It is determined whether light has an influence on the stability of crystal form A of the compound of formula I.
The crystal form A was placed in a light stabilizing chamber, and taken out after reaching ICH strength. The resulting solid was compared with the initial crystal form A. The content of the compound of formula I was determined by high performance liquid chromatography, and XRPD detection was performed.

T1 sequence (Q07343 whole entry): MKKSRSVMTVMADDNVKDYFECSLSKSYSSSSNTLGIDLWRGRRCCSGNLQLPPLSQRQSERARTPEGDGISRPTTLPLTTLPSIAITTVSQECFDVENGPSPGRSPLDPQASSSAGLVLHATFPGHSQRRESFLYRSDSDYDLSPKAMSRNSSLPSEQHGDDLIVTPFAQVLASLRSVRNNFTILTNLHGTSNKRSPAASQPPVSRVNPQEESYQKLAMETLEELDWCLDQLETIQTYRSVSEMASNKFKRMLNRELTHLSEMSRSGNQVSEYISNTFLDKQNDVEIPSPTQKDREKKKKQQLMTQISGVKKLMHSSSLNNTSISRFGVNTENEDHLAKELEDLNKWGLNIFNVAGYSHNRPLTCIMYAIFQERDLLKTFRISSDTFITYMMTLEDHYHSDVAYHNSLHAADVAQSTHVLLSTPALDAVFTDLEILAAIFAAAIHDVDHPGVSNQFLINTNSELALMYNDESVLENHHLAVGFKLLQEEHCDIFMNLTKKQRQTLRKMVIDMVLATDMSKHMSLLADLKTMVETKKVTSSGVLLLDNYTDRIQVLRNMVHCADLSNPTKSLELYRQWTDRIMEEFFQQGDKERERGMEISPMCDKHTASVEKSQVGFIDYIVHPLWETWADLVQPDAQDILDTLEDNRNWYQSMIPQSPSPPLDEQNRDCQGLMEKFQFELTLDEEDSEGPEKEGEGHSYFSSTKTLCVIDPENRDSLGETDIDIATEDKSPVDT

IC50 (PDE4B1 enzyme): 0.17 nM
IC50 [2]: 0.018 nM
Compound: COc1ccc(-c2cncc([C@@H]3COB(O)C3)n2)c2c1OC(C)(C)CC2 [Compound I, (R)-4-(6-(8-methoxy-2,2-dimethylbenzodihydropyran-5-yl)pyrazin-2-yl)-1,2-oxaborocyclopentan-2-ol]
Ratio of spleen to body weight, Mean ([1]; 0.01% applied on skin): 0.64
Erythema score, Mean ([1]; 0.01% applied on skin): 4
Psoriasis score, Mean ([1]; 0.01% applied on skin): 3.13
Thickness score, Mean ([1]; 0.01% applied on skin): 2.38
Total clinical score, Mean ([1]; 0.01% applied on skin): 9.5
Inhibitory effect on the increase in skin thickness compared with Compound A at the same dose ([1]; 0.03%): significantly higher
Ratio of spleen to body weight, Mean ([1]; 0.03% applied on skin): 0.43
Erythema score, Mean ([1]; 0.03% applied on skin): 3.86
Psoriasis score, Mean ([1]; 0.03% applied on skin): 2.14
Thickness score, Mean ([1]; 0.03% applied on skin): 1.57
Total clinical score, Mean ([1]; 0.03% applied on skin): 7.57
Ratio of spleen to body weight, Mean ([1]; 0.1% applied on skin): 0.31
Erythema score, Mean ([1]; 0.1% applied on skin): 3.63
Psoriasis score, Mean ([1]; 0.1% applied on skin): 1.38
Thickness score, Mean ([1]; 0.1% applied on skin): 1.75
Total clinical score, Mean ([1]; 0.1% applied on skin): 6.75
Effect on clinical score at the endpoint of the experiment [1]: significantly reduce
Effect on the ratio of spleen to body weight [1]: significantly reduce
Effect on the increase in skin thickness [1]: significantly inhibit
IC50 (TNF-α release in PBMCs): 0.055 nM

IC50 [2]: 0.61 nM
Compound: CCCOc1cc(-c2cncc([C@@H]3COB(O)C3)c2)ccc1OC [Compound A, reference compound]
Ratio of spleen to body weight, Mean ([1]; 0.03% applied on skin): 0.96
Erythema score, Mean ([1]; 0.03% applied on skin): 3.33
Psoriasis score, Mean ([1]; 0.03% applied on skin): 2.5
Thickness score, Mean ([1]; 0.03% applied on skin): 2.5
Total clinical score, Mean ([1]; 0.03% applied on skin): 8.33
Effect on clinical score at the endpoint of the experiment [1]: significantly reduce
Effect on the ratio of spleen to body weight [1]: no significant effect
Effect on the increase in skin thickness [1]: no significant effect

Purity ([3]; 55 °C, 30% humidity, 18 days): 98.01%
Purity ([3]; 55 °C, 79% humidity, 20 days): 97.40%
Purity ([3]; 65 °C, 11% humidity, 20 days): 97.74%
Purity ([3]; 65 °C, 50% humidity, 20 days): 96.16%
Purity ([3]; 65 °C, 75% humidity, 20 days): 95.86%
Purity ([3]; 70 °C, 11% humidity, 20 days): 97.33%
Purity ([3]; 75 °C, 0% humidity, 20 days): 97.41%
Purity ([3]; 75 °C, 50% humidity, 7 days): 96.57%
Purity ([3]; initial, 0 days): 97.99%
Weight gain by hygroscopicity ([4]; accelerated experimental conditions, 70% RH): approximately 0.15%
Crystal form before and after DVS detection (XRPD) ([4]; after DVS, humidity 0% to 90% RH): does not change
Weight gain by hygroscopicity ([4]; extreme conditions, 90% RH): approximately 0.70%
Weight gain by hygroscopicity ([4]; normal storage conditions, 25° C., 60% RH): approximately 0.08%
Purity ([5]; At 0): 97.99%
Purity ([5]; Light-0.5 ICH): 97.76%
Purity ([5]; Light-1.0 ICH): 97.15%
Compound: COc1ccc(-c2cncc([C@@H]3COB(O)C3)n2)c2c1OC(C)(C)CC2 [crystal form A, (R)-4-(6-(8-methoxy-2,2-dimethylbenzodihydropyran-5-yl)pyrazin-2-yl)-1,2-oxaborocyclopentan-2-ol]
Overall stability under temperature and humidity combinations ([3]; accelerated stability tests, Table 4 conditions): remains unchanged and exhibits good stability

IC50 [2]: 12.9 nM
Compound: O=C(Nc1c(Cl)cncc1Cl)c1ccc(OC(F)F)c(OCC2CC2)c1 [Roflumilast]

Source: patent US20260258057A1, “CRYSTAL OF BORATE DERIVATIVE, METHOD FOR PREPARING SAME, AND USE THEREOF” (Reistone Biopharma Company Limited, priority 2022, published 2026)
